According to patent US10226440B2, “Oral compositions comprising creatine” (Eddie O'Gorman Ltd, priority 2011, dated 2019):

Assay: HPLC creatine levels after storage of other aqueous gels, jellies, suspensions and water controls
Format: physicochemical
Conditions: 10 g in 50 ml water, stored at 4 deg Celsius and room temperature, after one month
Procedure: A spectrophotometric scan of the colloidal creatine (10 mg ml^−1 dissolved in HPLC mobile phase), the CARG (1:15 dilution in HPLC mobile phase) and the HPLC mobile phase was performed to determine the appropriate detection wavelength for the HPLC assay. The scan was performed over a wavelength range from 190-950 nm. It was decided to use 220 nm as the detection wavelength.
Due to the viscous nature of the CARG it had to be diluted by a factor of 10 at the very least before samples could be injected onto the HPLC. In general a dilution factor of 1/15 was used in the analysis of the samples. The variation in peak area over the course of the experiment was not significant and gave a standard deviation of 1351126.18 (approximately equivalent to 0.13 mg ml^−1 creatine), see Tables 1 and 2.
Two aqueous gels, (A) and (B), were created containing colloidal creatine were made by mixing with water and heating to 55 deg Celsius:
This was stored in a 100 ml plastic dispensing container at room temperature. Creatine levels were measured after 3 months using the above HPLC method and found to have decreased by 22% at 4 deg Celsius and only 5% at room temperature.
Another oral product was made using colloidal creatine in standard commercially available jelly beans reconstituted in water. The concentrations of colloidal creatine per ml of reconstituted jelly bean were 0, 20, 50, 100 and 200 mg/ml. […]

Structure (SMILES): CN(CC(=O)O)C(=N)N [creatine, creatine (2-(methylguanidino)ethanoic acid)]
- loss of creatine content: 90%
